Measured values as given in US7834248B2, “Plant seed comprising vernolic acid” (Commonwealth Scientific and Industrial Research Organisation, priority 1997, dated 2010).

Legend:
[1] = tested on: E. lagascae linoleate Δ12-epoxygenase; experiment: Membrane linoleate Δ12-epoxygenase assay, effect of treatments; assay type: biochemical, Euphorbia lagascae; conditions: for Enzyme Activity (% of control), E. lagascae linoleate Δ12-epoxygenase: membranes, control = minus NADH plus NADPH
Experimental: Preparations of membranes from Euphorbia lagascae and assays of their epoxygenase activities were performed as described by Bafor et al. (1993) with incubations containing NADPH, unless otherwise indicated in Table 4. Lipid extraction, separation and methylation as well as GLC and radio-GLC separations were performed essentially as described by Kohn et al. (1994) and Bafor et al. (1993).
(§1) Biochemical characterization of the microsomal linoleate Δ12-epoxygenase derived from Euphorbia lagascae and Crepis palaestina was carried out and data obtained were compared to the biochemical characteristics of oleate Δ12-desaturase and linoleate Δ12-acetylenase enzymes derived from microsomal preparations of Crepis alpina (Table 4).

[2] = tested on: developing linseed cotyledons; experiment: Incorporation of 14C-labelled oleic acid and vernolic acid into the lipids of developing linseed cotyledons
Experimental: 0.1 M phosphate buffer pH 7.2 for 90 or 270 min before extraction. An aliquot of the lipids in the chloroform phase was methylated and separated on silica gel TLC plates in n-hexane/diethylether/acetic acid (85:15:1). The rest of the lipids in the chloroform phase of each sample were applied on two separate silica gel TLC plates and the plates were developed in chloroform/methanol/acetic acid/water (85:15:10:3.5 by vol) for polar lipids separation and in n-hexane/diethylether/acetic acid (60:40:1.5) for neutral lipid separation. Lipid areas with migration corresponding to authentic standards were removed and radioactivity in each lipid were quantified by liquid scintillation counting.

[3] = tested on: C. palaestina linoleate Δ12-epoxygenase; experiment: Microsomal linoleate Δ12-epoxygenase assay, effect of treatments; assay type: biochemical, Crepis palaestina; conditions: microsomal membranes; control = minus NADPH plus NADH
Experimental: (§2) Preparations of membranes from Crepis alpina and Crepis palaestina were obtained as follows. Crepis alpina and Crepis palaestina plants were grown in green houses and seeds were harvested at the mid-stage of development (17-20 days after flowering). Cotyledons were squeezed out from their seed coats and homogenized with mortar and pestle in 0.1M phosphate buffer, pH 7.2 containing 0.33M sucrose, 4 mM NADH, 2 mM CoASH, 1 mg of bovine serum albumin/ml and 4,000 units of catalase/ml. The homogenate was centrifuged for 10 min at 18,000×g and the resulting supernatant centrifuged for 60 min at 150,000×g to obtain a microsome pellet.
(§3) […]. When NADPH was used as coreductant, the membranes were resuspended in homogenization buffer comprising NADPH in place of NADH.
as §1

[4] = tested on: C. alpina oleate Δ12-desaturase; experiment: Microsomal oleate Δ12-desaturase assay, effect of treatments; assay type: biochemical, Crepis alpina; conditions: for Enzyme Activity (% of control), C. alpina oleate Δ12-desaturase: microsomal membranes, control = minus NADPH plus NADH
Experimental: as §2, §3, §1

[5] = target: T1, C. alpina linoleate Δ12-acetylenase (Crepis alpina, UniProt O81931); experiment: Microsomal linoleate Δ12-acetylenase assay, effect of treatments; assay type: biochemical
T1 construct: from tissue; host or cells: microsomes from cotyledons of developing Crepis alpina seeds
T1 sequence (O81931 whole entry, stated change not applied): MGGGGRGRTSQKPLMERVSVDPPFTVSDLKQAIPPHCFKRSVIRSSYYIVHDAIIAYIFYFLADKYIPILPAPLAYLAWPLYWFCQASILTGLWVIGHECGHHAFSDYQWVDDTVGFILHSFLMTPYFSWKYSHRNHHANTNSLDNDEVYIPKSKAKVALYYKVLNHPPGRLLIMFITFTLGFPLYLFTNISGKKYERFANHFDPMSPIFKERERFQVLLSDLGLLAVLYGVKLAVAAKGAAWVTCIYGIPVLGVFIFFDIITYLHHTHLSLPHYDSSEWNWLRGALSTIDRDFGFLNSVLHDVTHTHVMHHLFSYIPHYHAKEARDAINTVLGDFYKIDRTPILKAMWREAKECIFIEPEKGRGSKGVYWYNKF
Experimental: as §2, §3, §1

## NC(=O)C1=CN([C@@H]2O[C@H](COP(=O)(O)OP(=O)(O)OC[C@H]3O[C@@H](n4cnc5c(N)ncnc54)[C@H](O)[C@@H]3O)[C@@H](O)[C@H]2O)C=CC1 [NADH]
[1]
  Enzyme Activity (% of control), E. lagascae linoleate Δ12-epoxygenase: 11 % of control

## CCCCCCCC/C=C\CCCCCCCC(=O)O [[^14C]oleic acid, oleic acid]
[2]; after 30 min
  Activity of chloroform phase residing in phosphatidylcholine: About 22%
  Activity of chloroform phase residing in triacylglycerols: About 5%
[2]; after the 30 min pulse labeling, virtually unchanged during further 270 min
  Added radioactivity taken up by the cotyledons and recovered as lipophilic substances (chloroform phase): Somewhat more than half
[2]; at 300 min of incubation
  Activity of chloroform phase residing in phosphatidylcholine: about 11%
  Activity of chloroform phase residing in triacylglycerols: 18%
[2]; remained rather constant over the incubation periods
  Activity contained in diacylglycerols: ~19%

## NC(=O)C1=CN([C@@H]2O[C@H](COP(=O)(O)OP(=O)(O)OC[C@H]3O[C@@H](n4cnc5c(N)ncnc54)[C@H](OP(=O)(O)O)[C@@H]3O)[C@@H](O)[C@H]2O)C=CC1 [NADPH]
[3]
  Enzyme Activity (% of control), C. palaestina linoleate Δ12-epoxygenase: 94 % of control
[4]
  Enzyme Activity (% of control), C. alpina oleate Δ12-desaturase: 95 % of control
[5]; microsomal membranes, control = minus NADPH plus NADH
  Enzyme Activity (% of control), C. alpina linoleate Δ12-acetylenase: 73 % of control

## [C-]#[O+] [Carbon monoxide]
[1]; Euphorbia lagascae membranes
  Inhibition of linoleate Δ12-epoxygenase (in words): is inhibited
[1]
  Enzyme Activity (% of control), E. lagascae linoleate Δ12-epoxygenase: 3 % of control
[3]
  Enzyme Activity (% of control), C. palaestina linoleate Δ12-epoxygenase: 88 % of control
[4]; Crepis alpina microsomes
  Inhibition of oleate Δ12-desaturase (in words): not by carbon monoxide
[4]
  Enzyme Activity (% of control), C. alpina oleate Δ12-desaturase: 85 % of control
[5]; Crepis alpina microsomes
  Inhibition of linoleate Δ12-acetylenase (in words): not by carbon monoxide

## CCCCCC1OC1CC=CCCCCCCCC(=O)O (centres unmarked) [[^14C]vernolic acid, 12,13-epoxy-9-octadecenoic acid]
[2]
  Metabolism of the epoxy group by linseed cotyledons (in words): do not metabolize the epoxy group of vernolic acid to any great extent
